According to patent US8501732B2, “Aminomethyl quinolone compounds” (Hoffmann-La Roche Inc., priority 2011, dated 2013):

Tests used:
JNK1 = JNK1 (Homo sapiens (Human), UniProt P45983); assay: In Vitro JNK1 Assay (TR-FRET, phosphorylation of GST-c-Jun); format: biochemical; conditions: 0.2 nM active JNK1 kinase, 26.7 nM GST-c-Jun, 2 μM ATP, 30 min at room temperature
Outline: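 GST-c-Jun (residues 1-79) phosphorylation by JNK1 in 50 mM HEPES pH 7.0, MgCl2, 1 mM DTT, 0.1 mM Na3VO4, 0.2 mg/mL BSA, 30 min at room temperature. Stopped with EDTA plus anti-phospho-c-Jun antibody and read by TR-FRET 1 hr later. IC50 from percent inhibition over 10 serial dilutions.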

[1] = system: phospho(Ser63)-c-jun in HK-2 cells; assay: Cell-Based Assay for JNK Inhibitors (in-cell ELISA, phospho(Ser63)-c-jun after TNFα); conditions: HK-2 cells (human proximal tubule cells), 60 minutes compound, then 10 ng/mL TNFα for 30 minutes
Outline: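 HK-2 human proximal tubule cells were seeded at 40,000 cells/well, cultured 24 h, then serum-starved 16–24 h before TNFα stimulation with compound. Phospho(Ser63)-c-jun was quantified by in-cell ELISA on fixed, permeabilised cells, using a rabbit phospho-specific primary (overnight, 4 °C) and an HRP-linked anti-rabbit secondary. Absorbance was read at 450 nm.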

Sequence of JNK1 (P45983 whole entry, the tested form may be a part): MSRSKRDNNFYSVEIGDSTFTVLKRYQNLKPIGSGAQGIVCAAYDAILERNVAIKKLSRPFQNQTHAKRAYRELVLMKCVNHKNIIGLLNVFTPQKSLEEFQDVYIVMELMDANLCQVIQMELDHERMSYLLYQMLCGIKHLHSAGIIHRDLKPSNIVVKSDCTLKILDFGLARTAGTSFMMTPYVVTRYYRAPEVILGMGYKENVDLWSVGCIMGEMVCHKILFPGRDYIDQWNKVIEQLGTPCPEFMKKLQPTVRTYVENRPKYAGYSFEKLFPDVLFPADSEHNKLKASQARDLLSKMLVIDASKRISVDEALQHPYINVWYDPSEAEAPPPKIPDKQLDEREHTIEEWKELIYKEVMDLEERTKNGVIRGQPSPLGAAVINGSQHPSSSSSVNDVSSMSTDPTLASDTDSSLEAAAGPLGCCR

Structure (SMILES) | IC50 (JNK1) [nM] | EC50 [1] [nM]
COC(=O)c1c(CNC(=O)c2ccc(OC)cc2)c(=O)c2ccc(OC)cc2n1-c1ccccc1 [Example I-164, 3-[(4-methoxy-benzoylamino)-methyl]-7-methoxy-4-oxo-1-phenyl-1,4-dihydro-quinoline-2-carboxylic acid methyl ester] | 54 | 8900
CC(C)(C)OC(=O)N1CC2CC1CN2c1ccc(C(=O)NCc2cn(-c3ccccc3)c3cc(Cl)ccc3c2=O)cn1 (stereo not drawn) [Example I-62, 5-{5-[(7-Chloro-4-oxo-1-phenyl-1,4-dihydro-quinolin-3-ylmethyl)-carbamoyl]-pyridin-2-yl}-2,5-diaza-bicyclo[2.2.1]heptane-2-carboxylic acid tert-butyl ester] | 11 | 13000
COC(=O)c1c(CNC(=O)c2ccc(OC)c(OC)c2)c(=O)c2ccc(Cl)cc2n1-c1ccccc1 [Example I-143, 7-Chloro-3-[(3,4-dimethoxy-benzoylamino)-methyl]-4-oxo-1-phenyl-1,4-dihydro-quinoline-2-carboxylic acid methyl ester] | 39 | 1000
CN(C)C(=O)c1c(CNC(=O)c2cnc(N3CCC(CO)CC3)s2)c(=O)c2ccc(Cl)cc2n1-c1ccccc1 [Example I-26] | 98 | 14000
COC(=O)c1c(CNC(=O)c2ccc(Cl)c(Cl)c2)c(=O)c2ccc(C(F)(F)F)nc2n1-c1ccccc1 [Example I-159, 3-[(3,4-Dichloro-benzoylamino)-methyl]-4-oxo-1-phenyl-7-trifluoromethyl-1,4-dihydro-[1,8]naphthyridine-2-carboxylic acid methyl ester] | 170 | 43000
O=C(NCc1c(-c2ncco2)n(-c2ccccc2)c2cc(Cl)ccc2c1=O)c1ccnc(N2CCOCC2)c1 [Example I-2, N-(7-Chloro-2-oxazol-2-yl-4-oxo-1-phenyl-1,4-dihydro-quinolin-3-ylmethyl)-2-morpholin-4-yl-isonicotinamide] | 7 | 2700
COC(=O)c1c(CNC(=O)c2ccc(-c3cnns3)cc2)c(=O)c2ccc(Cl)cc2n1-c1ccccc1 [Example I-124, 7-Chloro-4-oxo-1-phenyl-3-[(4-[1,2,3]thiadiazol-5-yl-benzoylamino)-methyl]-1,4-dihydro-quinoline-2-carboxylic acid methyl ester] | 17 | 7800

Further lines, results first:

IC50 (JNK1) [nM] | EC50 [1] [nM] | Structure (SMILES)
17 | 3800 | O=C(NCc1cn(-c2ccccc2)c2cc(Cl)ccc2c1=O)c1ccc(N2CCC(CCO)CC2)nc1 [Example I-63, 4-(2-Hydroxy-ethyl)-3,4,5,6-tetrahydro-2H-[1,2′]bipyridinyl-5′-carboxylic acid (7-chloro-4-oxo-1-phenyl-1,4-dihydro-quinolin-3-ylmethyl)-amide]
100 | 100000 | O=C(NCc1cn(-c2ccccc2)c2cc(Cl)ccc2c1=O)c1ccc(-c2ncn[nH]2)cc1 [Example I-43, N-(7-Chloro-4-oxo-1-phenyl-1,4-dihydro-quinolin-3-ylmethyl)-4-(2H-[1,2,4]triazol-3-yl)-benzamide]
44 | 12000 | O=C(NCc1cn(-c2ccccc2)c2cc(Cl)ccc2c1=O)c1ccn(Cc2ccc(Cl)cc2)c(=O)c1 [Example I-34, 1-(4-Chloro-benzyl)-2-oxo-1,2-dihydro-pyridine-4-carboxylic acid (7-chloro-4-oxo-1-phenyl-1,4-dihydro-quinolin-3-ylmethyl)-amide]
18 | 100000 | O=C(NCc1cn(-c2ccccc2)c2cc(Cl)ccc2c1=O)c1ccc(N(CCO)CCO)nc1 [Example I-64, 6-[Bis-(2-hydroxy-ethyl)-amino]-N-(7-chloro-4-oxo-1-phenyl-1,4-dihydro-quinolin-3-ylmethyl)-nicotinamide]
76 | 10000 | O=C(NCc1cn(-c2ccccc2)c2cc(Cl)ccc2c1=O)c1ccn(Cc2ccccc2Cl)c(=O)c1 [Example I-39, 1-(2-Chloro-benzyl)-2-oxo-1,2-dihydro-pyridine-4-carboxylic acid (7-chloro-4-oxo-1-phenyl-1,4-dihydro-quinolin-3-ylmethyl)-amide]
